For orientation: MIC means the smallest concentration in the dilution series that meets the test's criterion for growth inhibition. Lower therefore signals inhibition by little substance.

For test [1], the system named is K. pneumoniae. Put plainly: Rescue concentration of substituted phenyl azaindole derivatives. It is filed as cell-based. To be noted: for Rescue concentration, K. pneumoniae Ciprofloxacin (1 μg/mL): Ciprofloxacin fixed at 1 μg/mL; for Rescue concentration, K. pneumoniae Imipenem (1 μg/mL): Imipenem fixed at 1 μg/mL. As for the experimental part:
(§1) The antibiotic adjuvant activity of the SPazaBIMs were evaluated in combination with representative antibiotics (representing 13 antibiotic classes) against the 19 pathogens strains listed in Table 3. To assess the adjuvant properties of the SP-azaBIM molecules, a modified checkerboard minimum inhibitory concentration assay was used. A fixed concentration of the respective antibiotic (susceptible breakpoint concentration) was mixed with a twofold dilution series of the test SP-azaBIM (FIG. 1). This was to determine the concentration of SP-azaBIM needed potentiate the antibiotic at a clinically susceptible breakpoint concentration. Antibiotic susceptible breakpoint concentrations for the respective bacteria were determined using Clinical Laboratory Standards Institute (CLSI) criteria M100 ED31.
(§2) In this study, only those antibiotics to which the bacterial was classed as resistant were included in the adjuvant assays. In this assay we recorded the rescue concentration of the SP-BIM for a respective antibiotic. The rescue concentration was defined as the concentration of the adjuvant that reduces the minimum inhibitory concentration (MIC) of an antibiotic to the susceptibility breakpoint.
(§3) Immediately prior to testing, the respective antibiotic and SP-azaBIM was dissolved in sterile deionised water at 20× the required test concentration. Each microtiter well was then inoculated with 180 μl of bacterial inoculum of 10^6 CFU/ml in ca-MHB, and 10 μl each if the antibiotic and SP-azaBIM was added to the plates. These plates were then incubated at 35° C. for 24 h under aerobic conditions. A similar method was followed for the fastidious pathogens except that they were cultured in ca-MHB with 5% sheep blood and 5% CO2.
(§4) Bacterial growth was visually inspected after the incubation period and the rescue concentration of the test SP-azaBIM was determined as the lowest concentration of the compound needed to reduce bacterial growth by 99.99% at the susceptible breakpoint concentration of the antibiotic. For example, CLSI states that Pseudomonas aeruginosa is susceptible to the Imipenem if the MIC is ≤2 μg mL^−1. If the bacteria can tolerate this concentration in vitro, then the bacteria has an intermediate or absolute resistance toward that antibiotic. The goal was to determine the concentration of SP-azaBIM needed to cause P. aeruginosa death at 2 μg mL^−1 of Imipenem therefore restoring susceptibility of the bacteria to toward the antibiotic.
(§5) Phenyl azaindole compounds are also tested for their adjuvant activities and the method is shown in Example 39.

Test [2] deals with MRSA. The description is as above. The note with it: Amoxicillin fixed at 2 μg/mL. It is filed as cell-based, Staphylococcus aureus. As for the experimental part:
as §1, §2, §3, §4, §5

The subject of test [3] is Multidrug resistant Pseudomonas aeruginosa. Put plainly: Broth microdilution minimum inhibitory concentration. It is filed as cell-based. The note with it: compound alone. On the procedure:
(§6) Antibacterial activity of the synthesized compounds was determined following guidelines established by the Clinical and Laboratory Standards Institute M07-A10 (CLSI 2015), following the broth microdilution method. Briefly, the test articles were dissolved in 100% DMSO, diluted by 2-fold serial titrations in the same vehicle (100% DMSO), for a total of 11 concentrations. A 4 μL aliquot of each dilution was then added to 196 μL of broth medium seeded with the bacterial suspension in wells of a 96 well plate (bacterial count: 2×10^5 to 8×10^5 colony forming units/mL final). The highest test substance concentration was 1028 μg/mL, and the final vehicle concentration was 2 percent. Following incubation, the test plate was visually examined, and each well was scored for growth or complete inhibition of growth. The minimum inhibitory concentration was determined as the lowest concentration were no growth of the bacterial was observed. Each test article was assayed in duplicate.
For orientation: Dilution methods test growth across graded concentrations, often in twofold steps.

Test [4] concerns Carbapenem resistant Klebsiella pneumoniae. The description is as above. To be noted: compound alone. It is filed as cell-based. On the procedure:
as §6

Test [5] has as its system Methicillin resistant Staphylococcus aureus. The description is as above. The note with it: compound alone. It counts as cell-based. On the procedure: as §6
The test system of test [6] is Vancomycin resistant Enterococcus faecalis. The test is described as above. It is filed as cell-based. The note with it: compound alone. On the procedure:
as §6

The test system of test [7] is Carbapenem resistant Acinetobacter baumannii. Described as above. To be noted: compound alone. It is filed as cell-based. As for the experimental part:
as §6

For test [8], the system named is P. aeruginosa. Put plainly: Rescue concentration of substituted phenyl azaindole derivatives. It is filed as cell-based. To be noted: Imipenem fixed at 1 μg/mL. As for the experimental part: as §1, §2, §3
Bacterial growth was visually inspected after the incubation period and the rescue concentration of the test SP-azaBIM was determined as the lowest concentration of the compound needed to reduce bacterial growth by 99.99% at the susceptible breakpoint concentration of the antibiotic. […] If the bacteria can tolerate this concentration in vitro, then the bacteria has an intermediate or absolute resistance toward that antibiotic. […]
as §5

As for `OC(c1ccc(Br)cc1)c1c[nH]c2c(Cl)nccc12` (stereo not drawn) [4Br-7Cl-6aza-OH, (4-bromophenyl)(7-chloro-1H-pyrrolo[2,3-c]pyridin-3-yl)methanol], in test [1], the “Rescue concentration, K. pneumoniae Ciprofloxacin (1 μg/mL)” value was under 256 µg/mL. In test [1], the “Rescue concentration, K. pneumoniae Imipenem (1 μg/mL)” value was under 256 µg/mL. In addition, in test [2], the “Rescue concentration, MRSA Amoxicillin (2 μg/mL)” value (“Rescue concentration … (2 μg/mL)” for short) is 2 µg/mL. Further, the MIC in test [3], in test [4], in test [5], in test [6] and in test [7] was under 1020 µg/mL in each case. In test [8], the “Rescue concentration, P. aeruginosa Imipenem (1 μg/mL)” value was under 256 µg/mL.

Regarding `Oc1ccc(C(O)c2c[nH]c3ncc(F)cc23)cc1` (stereo not drawn) [4OH-5Fl-7aza-OH, 4-((5-fluoro-1H-pyrrolo[2,3-b]pyridin-3-yl)(hydroxy)methyl)phenol], the “Rescue concentration, K. pneumoniae Ciprofloxacin (1 μg/mL)” value in test [1] was under 256 µg/mL. Further, the “Rescue concentration, K. pneumoniae Imipenem (1 μg/mL)” value in test [1] is under 256 µg/mL. Besides, the “Rescue concentration … (2 μg/mL)” value in test [2] was found to be 16 µg/mL. Further, the MIC in test [3], in test [4], in test [5], in test [6] and in test [7] was under 1020 µg/mL in each case. Moreover, the “Rescue concentration, P. aeruginosa Imipenem (1 μg/mL)” value in test [8] was 256 µg/mL.

Turning to `O=[N+]([O-])c1cccc(C(c2c[nH]c3cnccc23)c2c[nH]c3cnccc23)c1` [3NO2-Bis-6aza, 3,3′-((3-nitrophenyl)methylene)bis(1H-pyrrolo[2,3-c]pyridine)], in test [1], the “Rescue concentration, K. pneumoniae Ciprofloxacin (1 μg/mL)” value is under 256 µg/mL. Also, the “Rescue concentration, K. pneumoniae Imipenem (1 μg/mL)” value in test [1] is under 256 µg/mL. Besides, the “Rescue concentration … (2 μg/mL)” value in test [2] was under 256 µg/mL. In addition, the MIC in test [3], in test [4], in test [5], in test [6] and in test [7] was under 1020 µg/mL in each case. Also, in test [8], the “Rescue concentration, P. aeruginosa Imipenem (1 μg/mL)” value is under 256 µg/mL.

Consider `Oc1ccc(C(c2c[nH]c3cnc(Cl)cc23)c2c[nH]c3cnc(Cl)cc23)cc1` [4OH-Bis 5Cl 6aza, 4-(bis(5-chloro-1H-pyrrolo[2,3-c]pyridin-3-yl)methyl)phenol], for which the “Rescue concentration, K. pneumoniae Ciprofloxacin (1 μg/mL)” value in test [1] is under 256 µg/mL. For the same compound, in test [1], the “Rescue concentration, K. pneumoniae Imipenem (1 μg/mL)” value was under 256 µg/mL. In addition, in test [2], the “Rescue concentration … (2 μg/mL)” value is 8 µg/mL. In addition, the MIC in test [3], in test [4], in test [5], in test [6] and in test [7] was under 1020 µg/mL each time. Besides, the “Rescue concentration, P. aeruginosa Imipenem (1 μg/mL)” value in test [8] is under 256 µg/mL.

`O=Cc1cccc(C(O)c2c[nH]c3cnccc23)c1` (stereo not drawn) [ISO-6aza-OH, 3-(hydroxy(1H-pyrrolo[2,3-c]pyridin-3-yl)methyl)benzaldehyde]: in test [1], the “Rescue concentration, K. pneumoniae Ciprofloxacin (1 μg/mL)” value was under 256 µg/mL. Moreover, in test [1], the “Rescue concentration, K. pneumoniae Imipenem (1 μg/mL)” value was under 256 µg/mL. In addition, the “Rescue concentration … (2 μg/mL)” value in test [2] came out at 64 µg/mL. For the same compound, the MIC in test [3], in test [4], in test [5], in test [6] and in test [7] was under 1020 µg/mL in each case. The “Rescue concentration, P. aeruginosa Imipenem (1 μg/mL)” value in test [8] is under 256 µg/mL.

Take `O=[N+]([O-])c1ccc(C(O)c2c[nH]c3c(Cl)nccc23)cc1` (stereo not drawn) [4NO2-7Cl-6aza-OH, (7-chloro-1H-pyrrolo[2,3-c]pyridin-3-yl)(4-nitrophenyl)methanol]: the “Rescue concentration, K. pneumoniae Ciprofloxacin (1 μg/mL)” value in test [1] is under 256 µg/mL. Also, in test [1], the “Rescue concentration, K. pneumoniae Imipenem (1 μg/mL)” value is under 256 µg/mL. In test [2], the “Rescue concentration … (2 μg/mL)” value came to 8 µg/mL. Besides, the MIC in test [3], in test [4], in test [5], in test [6] and in test [7] was under 1020 µg/mL throughout. Also, the “Rescue concentration, P. aeruginosa Imipenem (1 μg/mL)” value in test [8] is under 256 µg/mL.

For the compound `O=[N+]([O-])c1ccc(C(O)c2c[nH]c3cnc(Br)cc23)cc1` (stereo not drawn) [4NO2-5Br-6aza-OH, (5-bromo-1H-pyrrolo[2,3-c]pyridin-3-yl)(4-nitrophenyl)methanol], the “Rescue concentration, K. pneumoniae Ciprofloxacin (1 μg/mL)” value in test [1] is under 256 µg/mL. Also, the “Rescue concentration, K. pneumoniae Imipenem (1 μg/mL)” value in test [1] is under 256 µg/mL. For the same compound, the “Rescue concentration … (2 μg/mL)” value in test [2] turned out to be 32 µg/mL. The MIC in test [3], in test [4], in test [5], in test [6] and in test [7] was under 1020 µg/mL throughout. Also, in test [8], the “Rescue concentration, P. aeruginosa Imipenem (1 μg/mL)” value is under 256 µg/mL.

For the compound `O=[N+]([O-])c1cccc(C(O)c2c[nH]c3c(Cl)nc(Br)cc23)c1` (stereo not drawn) [3NO2-5Br-7Cl-6aza-OH, (5-bromo-7-chloro-1H-pyrrolo[2,3-c]pyridin-3-yl)(3-nitrophenyl)methanol], the “Rescue concentration, K. pneumoniae Ciprofloxacin (1 μg/mL)” value in test [1] is under 256 µg/mL. For the same compound, the “Rescue concentration, K. pneumoniae Imipenem (1 μg/mL)” value in test [1] was under 256 µg/mL. In addition, in test [2], the “Rescue concentration … (2 μg/mL)” value worked out at 16 µg/mL. The MIC in test [3], in test [4], in test [5], in test [6] and in test [7] was under 1020 µg/mL each time. Besides, the “Rescue concentration, P. aeruginosa Imipenem (1 μg/mL)” value in test [8] was under 256 µg/mL.

`Oc1ccc(C(O)c2c[nH]c3cnc(Cl)cc23)cc1` (stereo not drawn) [4OH-5Cl-6aza-OH, 4-((5-chloro-1H-pyrrolo[2,3-c]pyridin-3-yl)(hydroxy)methyl)phenol]: the “Rescue concentration, K. pneumoniae Ciprofloxacin (1 μg/mL)” value in test [1] was under 256 µg/mL. In addition, the “Rescue concentration, K. pneumoniae Imipenem (1 μg/mL)” value in test [1] is 256 µg/mL. The “Rescue concentration … (2 μg/mL)” value in test [2] came out at 16 µg/mL. For the same compound, the MIC in test [3], in test [4], in test [5], in test [6] and in test [7] was under 1020 µg/mL throughout. For the same compound, in test [8], the “Rescue concentration, P. aeruginosa Imipenem (1 μg/mL)” value is under 256 µg/mL.

On to `Oc1ccc(C(c2c[nH]c3ncc(Cl)cc23)c2c[nH]c3ncc(Cl)cc23)cc1` [4OH-Bis 5Cl 7aza, 4-(bis(5-chloro-1H-pyrrolo[2,3-b]pyridin-3-yl)methyl)phenol], for which the “Rescue concentration, K. pneumoniae Ciprofloxacin (1 μg/mL)” value in test [1] was under 256 µg/mL. In addition, the “Rescue concentration, K. pneumoniae Imipenem (1 μg/mL)” value in test [1] is under 256 µg/mL. In test [2], the “Rescue concentration … (2 μg/mL)” value worked out at 2 µg/mL. The MIC in test [3], in test [4], in test [5], in test [6] and in test [7] was under 1020 µg/mL each time. For the same compound, in test [8], the “Rescue concentration, P. aeruginosa Imipenem (1 μg/mL)” value was under 256 µg/mL.

As to `Nc1cccc(C(O)c2c[nH]c3cnccc23)c1` (stereo not drawn) [Compound 3NH2-6aza-OH, (3-aminophenyl)(1H-pyrrolo[2,3-c]pyridin-3-yl)methanol], in test [1], the “Rescue concentration, K. pneumoniae Ciprofloxacin (1 μg/mL)” value was found to be 64 µg/mL. For the same compound, in test [1], the “Rescue concentration, K. pneumoniae Imipenem (1 μg/mL)” value turned out to be 32 µg/mL. Further, in test [2], the “Rescue concentration … (2 μg/mL)” value amounted to 8 µg/mL. Besides, the MIC in test [3], in test [4], in test [5], in test [6] and in test [7] was under 1020 µg/mL throughout. Also, the “Rescue concentration, P. aeruginosa Imipenem (1 μg/mL)” value in test [8] stood at 32 µg/mL.
